Results as given in patent publication US10000476B2, “Pyridone derivative, pharmaceutical containing the same and methods of use thereof” (KAKEN PHARMACEUTICAL CO., LTD., priority 2011, dated 2018).

What follows are compounds tested against TACE (Homo sapiens (Human), UniProt P78536) (assay: TACE inhibition test (in vitro)). Conditions: fluorescent synthetic substrate, 37° C., 1.5 hours.
Type: biochemical
Method: The nucleotide sequence of TACE has been reported by Moss et al. (Moss, M. L. et al., Nature 1997, 385, 733-736). Accordingly, the cDNA of TACE was obtained according to the prescribed method from THP-1 cells or the like, and then incorporated the cDNA into an expression vector. Next, this vector was transformed into mammalian cells or insect cells, and TACE expression was obtained.
The TACE inhibition test was carried out by measuring TACE activity in the presence and the absence of the test substance using the thus-obtained TACE as an enzyme, and a fluorescent synthetic substrate Nma(N-methylanthranilic acid)-Leu-Ala-Gln-Ala-Val-Arg-Ser-Ser-Lys(Dnp(dinitrophenyl))-D-Arg-NH2 (SEQ ID NO: 1) including the TACE-cleaved sequence of a membrane-bound TNF as a substrate. The TACE inhibition test method is shown below.
Namely, 90 μL of an enzyme solution prepared with an assay buffer A (50 mM tris-hydrochloric acid buffer (pH 7.5) including 200 mM sodium chloride, 5 mM calcium chloride, 10 μM zinc sulfate, and 2 mg/mL bovine serum albumin) and 90 μL of a fluorescent synthetic substrate prepared with an assay buffer B (50 mM tris-hydrochloric acid buffer (pH 7.5) including 200 mM sodium chloride, 5 mM calcium chloride, 10 μM zinc sulfate, and 0.05% PLURONIC F-68) were mixed together, and reacted at 37° C. for 1.5 hours. Enzyme activity was then determined by measuring with a fluorescence intensity meter (Labsystems, Fluoroskan Ascent) at an excitation wavelength of 355 nm and a measurement wavelength of 460 nm.
From the enzyme activity in the presence or the absence of the test substance, the inhibition rate was determined, and the 50% inhibitiory concentration (IC50) of the test substance was calculated.

Chain of TACE (P78536 215-824): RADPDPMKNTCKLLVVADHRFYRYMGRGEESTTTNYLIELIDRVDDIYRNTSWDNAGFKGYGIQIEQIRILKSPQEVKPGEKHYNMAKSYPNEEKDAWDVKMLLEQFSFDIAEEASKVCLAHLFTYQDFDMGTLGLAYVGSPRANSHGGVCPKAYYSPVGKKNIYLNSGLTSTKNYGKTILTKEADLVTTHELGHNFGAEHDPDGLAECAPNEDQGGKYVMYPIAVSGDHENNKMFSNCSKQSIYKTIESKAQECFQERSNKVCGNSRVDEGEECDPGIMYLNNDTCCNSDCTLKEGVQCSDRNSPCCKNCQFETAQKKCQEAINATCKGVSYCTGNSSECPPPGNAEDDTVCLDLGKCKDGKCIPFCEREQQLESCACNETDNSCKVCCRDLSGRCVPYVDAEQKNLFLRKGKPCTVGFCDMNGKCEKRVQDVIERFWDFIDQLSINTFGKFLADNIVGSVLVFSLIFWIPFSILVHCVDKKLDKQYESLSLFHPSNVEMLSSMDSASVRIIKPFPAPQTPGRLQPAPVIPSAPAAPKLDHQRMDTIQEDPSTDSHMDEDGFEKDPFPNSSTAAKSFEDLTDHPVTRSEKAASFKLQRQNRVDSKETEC

| Compound | IC50 [nM] |
| --- | --- |
| COc1ccccc1-c1ccc(C2(Cn3cccc(C)c3=O)NC(=O)NC2=O)cc1 (stereo not shown) [Compound I-74] | < 100 |
| Cc1cccn(CC2(c3ccc(-c4ccc(F)cc4)cc3)NC(=O)NC2=O)c1=O (stereo not shown) [Compound I-75] | < 100 |
| COc1ccc(C)cc1C1(Cn2cccc(C)c2=O)NC(=O)NC1=O (stereo not shown) [Compound I-76] | 100 to 1000 |
| Cc1cccn(CC2(c3ccc4c(c3)CCCC4)NC(=O)NC2=O)c1=O (stereo not shown) [Compound I-77] | < 100 |
| Cc1cccn(CC2(c3ccc(OC(F)F)cc3)NC(=O)NC2=O)c1=O (stereo not shown) [Compound I-78] | < 100 |
| Cc1cccn(CC2(c3ccc(OC(F)(F)F)cc3)NC(=O)NC2=O)c1=O (stereo not shown) [Compound I-79] | < 100 |
| Cc1cccc(Oc2ccc(C3(Cn4cccc(C)c4=O)NC(=O)NC3=O)cc2)c1 (stereo not shown) [Compound I-80] | < 100 |
| COc1ccc(Oc2ccc(C3(Cn4cccc(C)c4=O)NC(=O)NC3=O)cc2)cc1 (stereo not shown) [Compound I-81] | < 100 |
| Cc1cccn(CC2(c3ccc(Oc4ccc(Cl)cc4)cc3)NC(=O)NC2=O)c1=O (stereo not shown) [Compound I-82] | < 100 |
| COc1cccc(Oc2ccc(C3(Cn4cccc(C)c4=O)NC(=O)NC3=O)cc2)c1 (stereo not shown) [Compound I-83] | < 100 |
| Cc1cccn(CC2(c3ccc(Oc4ccccc4)c(F)c3)NC(=O)NC2=O)c1=O (stereo not shown) [Compound I-87] | < 100 |
| Cc1cccn(CC2(c3ccc(OCc4ccc(F)cc4)cc3)NC(=O)NC2=O)c1=O (stereo not shown) [Compound I-88] | < 100 |
| Cc1cccn(CC2(c3ccc(C(F)(F)F)cc3)NC(=O)NC2=O)c1=O (stereo not shown) [Compound I-89] | < 100 |
| Cc1noc(C)c1-c1ccc(C2(Cn3cccc(C)c3=O)NC(=O)NC2=O)cc1 (stereo not shown) [Compound I-90] | < 100 |
| COc1ccncc1-c1ccc(C2(Cn3cccc(C)c3=O)NC(=O)NC2=O)cc1 (stereo not shown) [Compound I-91] | < 100 |
| Cc1cccn(CC2(c3ccc(-c4ccccn4)cc3)NC(=O)NC2=O)c1=O (stereo not shown) [Compound I-92] | < 100 |
| Cc1cccn(CC2(c3cccc(-c4ccc(F)cn4)c3)NC(=O)NC2=O)c1=O (stereo not shown) [Compound I-93] | < 100 |
| Cc1cccn(CC2(c3cccc(-c4ccccn4)c3)NC(=O)NC2=O)c1=O (stereo not shown) [Compound I-94] | < 100 |
| Cc1cccn(CC2(c3cccc(-c4ccncc4)c3)NC(=O)NC2=O)c1=O (stereo not shown) [Compound I-95] | < 100 |
| Cc1cccn(CC2(c3cccc(-c4ccccc4)c3)NC(=O)NC2=O)c1=O (stereo not shown) [Compound I-96] | < 100 |
| Cc1cccn(CC2(c3ccc(Oc4ccc(F)cc4F)cc3)NC(=O)NC2=O)c1=O (stereo not shown) [Compound I-97] | < 100 |

| Compound | IC50 [nM] |
| --- | --- |
| Cc1cccn(CC2(c3ccc(Oc4ccc(F)c(F)c4)cc3)NC(=O)NC2=O)c1=O (stereo not shown) [Compound I-98] | < 100 |
| Cc1cccn(CC2(c3ccc(Oc4cc(F)cc(F)c4)cc3)NC(=O)NC2=O)c1=O (stereo not shown) [Compound I-99] | < 100 |
| Cc1cccn(CC2(c3ccc(Oc4cccc(C(F)(F)F)c4)cc3)NC(=O)NC2=O)c1=O (stereo not shown) [Compound I-100] | < 100 |
| Cc1cccn(CC2(c3ccc(Oc4cccnc4)cc3)NC(=O)NC2=O)c1=O (stereo not shown) [Compound I-101] | < 100 |
| Cc1cccn(CC2(c3ccc(Sc4ccccc4)c(F)c3)NC(=O)NC2=O)c1=O (stereo not shown) [Compound I-103] | < 100 |
| Cc1cccn(CC2(c3ccc(Oc4ccccc4F)c(F)c3)NC(=O)NC2=O)c1=O (stereo not shown) [Compound I-104] | < 100 |
| Cc1cccn(CC2(c3ccc4c(c3)OCCCO4)NC(=O)NC2=O)c1=O (stereo not shown) [Compound I-105] | < 100 |
| Cc1cccn(CC2(c3ccc(C#Cc4ccccc4)cc3)NC(=O)NC2=O)c1=O (stereo not shown) [Compound I-106] | < 100 |
| Cc1cccn(CC2(c3ccc(CCc4ccccc4)cc3)NC(=O)NC2=O)c1=O (stereo not shown) [Compound I-107] | < 100 |
| C=C(C)c1ccc(C2(Cn3cccc(C)c3=O)NC(=O)NC2=O)cc1 (stereo not shown) [Compound I-108] | < 100 |
| Cc1cccn(CC2(c3ccc(/C=C/C4CCCCC4)cc3)NC(=O)NC2=O)c1=O (stereo not shown) [Compound I-109] | 100 to 1000 |
| Cc1cccn(CC2(c3ccc(C#Cc4ccccn4)cc3)NC(=O)NC2=O)c1=O (stereo not shown) [Compound I-110] | < 100 |
| Cc1cccn(CC2(c3ccc(Oc4ccc(F)cc4)c(F)c3)NC(=O)NC2=O)c1=O (stereo not shown) [Compound I-111] | < 100 |
| Cc1cccn(CC2(c3ccc(Oc4cccc(F)c4)c(F)c3)NC(=O)NC2=O)c1=O (stereo not shown) [Compound I-112] | < 100 |
| COc1ccccc1Oc1ccc(C2(Cn3cccc(C)c3=O)NC(=O)NC2=O)cc1 (stereo not shown) [Compound I-113] | < 100 |
| COc1ccccc1Oc1ccc(C2(Cn3cccc(C)c3=O)NC(=O)NC2=O)cc1F (stereo not shown) [Compound I-114] | < 100 |
| Cc1cccn(CC2(c3ccc(CCc4ccccn4)cc3)NC(=O)NC2=O)c1=O (stereo not shown) [Compound I-115] | < 100 |
| CCc1ccc(C2(Cn3cccc(C)c3=O)NC(=O)NC2=O)cc1 (stereo not shown) [Compound I-116] | < 100 |
| Cc1cccn(CC2(c3ccc(C(C)C)cc3)NC(=O)NC2=O)c1=O (stereo not shown) [Compound I-117] | < 100 |
| Cc1cccn(CC2(c3ccc(CCC4CCCCC4)cc3)NC(=O)NC2=O)c1=O (stereo not shown) [Compound I-118] | 100 to 1000 |
| CCOc1ccc(C2(Cn3cccc(C)c3=O)NC(=O)NC2=O)cc1 (stereo not shown) [Compound I-119] | < 100 |

| Compound | IC50 [nM] |
| --- | --- |
| Cc1cccn(CC2(c3ccc(OC(C)C)cc3)NC(=O)NC2=O)c1=O (stereo not shown) [Compound I-120] | < 100 |
| Cc1cccn(CC2(c3ccc(CC(C)C)cc3)NC(=O)NC2=O)c1=O (stereo not shown) [Compound I-121] | < 100 |
| Cc1cccn(CC2(c3ccc(Oc4cccnc4)c(F)c3)NC(=O)NC2=O)c1=O (stereo not shown) [Compound I-122] | < 100 |
| Cc1cccn(CC2(c3ccc(Oc4ccccc4)c(Cl)c3)NC(=O)NC2=O)c1=O (stereo not shown) [Compound I-123] | < 100 |
| Cc1cccn(CC2(c3ccc(OC4CCCC4)cc3)NC(=O)NC2=O)c1=O (stereo not shown) [Compound I-124] | < 100 |
| Cc1cccn(CC2(c3ccc(Cl)c(Cl)c3)NC(=O)NC2=O)c1=O (stereo not shown) [Compound I-125] | < 100 |
| Cc1cccn(CC2(c3ccc(F)c(Cl)c3)NC(=O)NC2=O)c1=O (stereo not shown) [Compound I-126] | < 100 |
| COc1cc(C2(Cn3cccc(C)c3=O)NC(=O)NC2=O)cc(F)c1F (stereo not shown) [Compound I-127] | < 100 |
| Cc1ccc(C2(Cn3cccc(C)c3=O)NC(=O)NC2=O)c(F)c1F (stereo not shown) [Compound I-128] | < 100 |
| Cc1cc(C2(Cn3cccc(C)c3=O)NC(=O)NC2=O)ccc1OC1CCCCC1 (stereo not shown) [Compound I-131] | < 100 |
| O=C1NC(=O)C(Cn2cccc(F)c2=O)(c2ccccc2)N1 (stereo not shown) [Compound I-132] | < 100 |
| COc1ccc(C2(Cn3cccc(F)c3=O)NC(=O)NC2=O)cc1 (stereo not shown) [Compound I-133] | < 100 |
| N#Cc1ccc(C2(Cn3cccc(F)c3=O)NC(=O)NC2=O)cc1 (stereo not shown) [Compound I-134] | < 100 |
| O=C1NC(=O)C(Cn2cccc(F)c2=O)(c2ccc3ccccc3c2)N1 (stereo not shown) [Compound I-135] | < 100 |
| O=C1NC(=O)C(Cn2cccc(Cl)c2=O)(c2ccc(F)cc2)N1 (stereo not shown) [Compound I-136] | < 100 |
| COc1ccc(C2(Cn3cccc(Cl)c3=O)NC(=O)NC2=O)cc1 (stereo not shown) [Compound I-137] | < 100 |
| N#Cc1ccc(C2(Cn3cccc(Cl)c3=O)NC(=O)NC2=O)cc1 (stereo not shown) [Compound I-138] | < 100 |
| O=C1NC(=O)C(Cn2cccc(Br)c2=O)(c2ccccc2)N1 (stereo not shown) [Compound I-139] | < 100 |
| O=C1NC(=O)C(Cn2cccc(C(F)(F)F)c2=O)(c2ccccc2)N1 (stereo not shown) [Compound I-140] | < 100 |
